{
  "source": "patent US5534517A",
  "about": "“(Aryl(alkyl)carbonyl)-heterocyclic compounds and their use in the treatment of anxiety and depression” (Adir Et Compagnie, priority 1993, dated 1996)",
  "key": {"[1]": {"target": "T1, 5-HT2 serotoninergic receptors (Rattus norvegicus, UniProt P14842)", "T1 construct": "on rat frontal cortex preparations; from tissue; host or cells: rat frontal cortex", "T1 sequence (P14842 whole entry)": "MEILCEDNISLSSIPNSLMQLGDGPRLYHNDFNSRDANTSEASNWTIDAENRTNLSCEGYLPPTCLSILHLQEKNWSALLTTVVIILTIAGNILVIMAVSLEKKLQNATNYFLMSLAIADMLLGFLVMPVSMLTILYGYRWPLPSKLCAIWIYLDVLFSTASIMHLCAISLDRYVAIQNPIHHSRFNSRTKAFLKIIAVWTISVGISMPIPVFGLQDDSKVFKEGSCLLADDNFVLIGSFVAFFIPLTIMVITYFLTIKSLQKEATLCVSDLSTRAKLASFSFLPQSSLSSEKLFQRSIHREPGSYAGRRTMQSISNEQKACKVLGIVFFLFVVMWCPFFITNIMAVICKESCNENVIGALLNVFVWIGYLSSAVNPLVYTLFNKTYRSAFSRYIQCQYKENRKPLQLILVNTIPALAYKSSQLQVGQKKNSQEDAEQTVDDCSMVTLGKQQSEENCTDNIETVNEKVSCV", "experiment": "in-vitro affinity for 5-HT2 serotoninergic receptors, by measuring the displacement of aminoiodoketanserin, on rat frontal cortex preparations", "settings": "read-out: IC50 (concentration inhibiting binding of the labelled ligand by 50%) (converted)", "method": "The in-vitro affinity of the compounds of the invention was determined\nfor 5-HT2 serotoninergic receptors, by measuring the displacement of aminoiodoketanserin, on rat frontal cortex preparations, […]"}, "[2]": {"set-up": "species or system Rats or mice", "settings": "in vivo"}},
  "note": "Like-named read-outs stand apart in the source and are kept apart here.",
  "data": [
    {"smiles": "O=C(c1ccc(F)cc1)C1CCN(CCn2c(=O)sc3ccccc32)CC1", "note": "[Example 1, 3-{2-[4-(4-FLUOROBENZOYL)PIPERIDINO]ETHYL}BENZOTHIAZOLIN-2-ONE]", "values": [
      {"measurement": "IC50", "setting": "[1]", "value": 1, "unit": "nM"}
    ]},
    {"smiles": "COc1ccccc1N1CCN(CCCCc2ccc3c(c2)sc(=O)n3CCN2CCC(C(=O)c3ccc(F)cc3)CC2)CC1", "note": "[Example 3, 3-{2-[4-(4-FLUOROBENZOYL)PIPERIDINO]ETHYL}-6-(4-[4-(2-METHOXY-PHENYL)PIPERAZINYL]BUTYL}BENZOTHIAZOLIN-2-ONE]", "values": [
      {"measurement": "IC50", "setting": "[1]", "value": 1, "unit": "nM"}
    ]},
    {"smiles": "O=C(c1ccc(F)cc1)C1CCN(CCn2c(=O)sc3cc(CCCCN4CCOCC4)ccc32)CC1", "note": "[Example 4, 3-{2-[4-(4-FLUOROBENZOYL)PIPERIDINO]ETHYL}-6-(4-MORPHOLINOBUTYL)BENZOTHIAZOLIN-2-ONE]", "values": [
      {"measurement": "IC50", "setting": "[1]", "value": 0.5, "unit": "nM"}
    ]},
    {"smiles": "Cn1c(=O)sc2cc(CCN3CCC(C(=O)c4ccc(F)cc4)CC3)ccc21", "note": "[Example 48, 3-METHYL-6-{2-[4-(4-FLUOROBENZOYL)PIPERIDINO]ETHYL}BENZOTHIAZOLIN-2-ONE]", "values": [
      {"measurement": "inhibition of reaction time which the animal takes to lick its paws", "setting": "[2]", "value": 175, "unit": "%"}
    ]},
    {"smiles": "CN1CC[C@]23c4c5ccc(O)c4O[C@H]2[C@@H](O)C=C[C@H]3[C@H]1C5", "note": "[morphine, reference compound]", "values": [
      {"measurement": "inhibition of reaction time which the animal takes to lick its paws", "setting": "[2]; ip", "value": 129, "unit": "%"}
    ]}
  ]
}
